{
  "source": "patent US20150065545A1",
  "about": "“Transdermal Delivery of Anastrozole for Systemic Effect” (Professional Compounding Centers of America, priority 2013, published 2015)",
  "origin": "cited, not measured here",
  "key": {"[1]": {"conditions": "men with hormone disorders (elevated estradiol) prescribed anastrozole"}, "[2]": {"conditions": "after the use of anastrozole for about 7 days"}},
  "data": [
    {"compound": "CC(C)(C#N)c1cc(Cn2cncn2)cc(C(C)(C)C#N)c1", "note": "[anastrozole, 1,3-benzenediacetonitrile, a, a, a′, a′-tetramethyl-5-(1H-1,2,4-triazol-1-ylmethyl)]", "values": [
      {"measurement": "estradiol levels", "setting": "[1]", "result": "significant decrease"},
      {"measurement": "increase of natural testosterone levels", "setting": "[2]", "result": "≤ 60", "unit": "%"}
    ]}
  ]
}
